This note sets out measurements from patent US8987195B2 (priority 2012, dated 2015).

Like-named read-outs stand apart in the source and are kept apart here.

Test [1] deals with HCV NS3/4A protease genotype 1b (Hepatitis C virus genotype 1b, UniProt P26663). Description: HCV NS3/4A protease time-resolved fluorescence (TRF) assay, Ki against genotype 1b. The test is classed as biochemical. To be noted: IC50 [gt-1b] (nM), NS3/4A genotype 1b, enzyme 0.2 nM. Put shortly: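 Ki was converted from fitted IC50 using IC50=Ki(1+[S]/KM) and 25 nM substrate. Protease (genotype 1b 0.2 nM, A156T 0.4 nM, 3a 0.025 nM) and compound were pre-mixed 30 min in pH 7.5 HEPES/NaCl/glycerol/DTT buffer. Cleavage then proceeded 2.5 h at room temperature, detected by time-resolved europium fluorescence (340/615 nm).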

In another test the test system is HCV genotype 1b replicon. Description: HCV replicon assay, genotype 1b replicon EC50. The format is cell-based, Hepatitis C virus. As to conditions: Hepatitis C virus, genotype 1b replicon, read-out: EC50 [gt-1b]. An outline of the steps: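 Cells harbouring a stable replicon are grown under G418 selection, then plated with test compound in G418-free medium for 24-48 hours. After washing and lysis, RNA or luciferase signal is measured and expressed as percent of DMSO control to give EC50.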

For the compound `CCN(CC)C(=O)N[C@H]1CCCCC/C=C\[C@@H]2C[C@@]2(C(=O)NS(=O)(=O)C2(C)CC2)NC(=O)[C@@H]2C[C@]3(CCc4c(c(C)nc5ccccc45)O3)CN2C1=O` [Example 289, (2R,6S,12Z,13aS,14aR,16aS)-6-[(diethylcarbamoyl)amino]-5′-methyl-N-[(1-methylcyclopropyl)sulfonyl]-5,16-dioxo-1,1′,2′,6,7,8,9,10,11,13a,14,15,16,16a-tetradecahydrospiro[cyclopropa[e]pyrrolo[1,2-a][1,4]diazacyclopentadecine-2,3′-pyrano[2,3-c]quinoline]-14a(5H)-carboxamide], in test [1] (HCOOH salt), the IC50 was 0.023 nM. The EC50 in the test on HCV genotype 1b replicon (HCOOH salt) came out at 7 nM.

For `Cc1nc2ccccc2c2c1O[C@]1(CC2)C[C@H]2C(=O)N[C@]3(C(=O)NS(=O)(=O)C4(C)CC4)C[C@H]3/C=C\CCCCC[C@H](NC(=O)N3CCCCC3)C(=O)N2C1` [Example 290, (2R,6S,12Z,13aS,14aR,16aS)-5′-methyl-N-[(1-methylcyclopropyl)sulfonyl]-5,16-dioxo-6-[(piperidin-1-ylcarbonyl)amino]-1,1′,2′,6,7,8,9,10,11,13a,14,15,16,16a-tetradecahydrospiro[cyclopropa[e]pyrrolo[1,2-a][1,4]diazacyclopentadecine-2,3′-pyrano[2,3-c]quinoline]-14a(5H)-carboxamide], the IC50 in test [1] (HCOOH salt) came out at 0.017 nM. For the same compound, the EC50 with HCV genotype 1b replicon (HCOOH salt) is 7.02 nM.

As to `Cc1nc2ccccc2c2c1O[C@]1(CC2)C[C@H]2C(=O)N[C@]3(C(=O)NS(=O)(=O)C4(C)CC4)C[C@H]3/C=C\CCCCC[C@H](NC(=O)N3CCOCC3)C(=O)N2C1` [Example 291, (2R,6S,12Z,13aS,14aR,16aS)-5′-methyl-N-[(1-methylcyclopropyl)sulfonyl]-6-[(morpholin-4-ylcarbonyl)amino]-5,16-dioxo-1,1′,2′,6,7,8,9,10,11,13a,14,15,16,16a-tetradecahydrospiro[cyclopropa[e]pyrrolo[1,2-a][1,4]diazacyclopentadecine-2,3′-pyrano[2,3-c]quinoline]-14a(5R)-carboxamide], the IC50 in test [1] (HCOOH salt) was determined as 0.032 nM. In the test with HCV genotype 1b replicon (HCOOH salt), the EC50 amounted to 84.6 nM.

Turning to `Cc1nc2ccccc2c2c1O[C@]1(CC2)C[C@H]2C(=O)N[C@]3(C(=O)NS(=O)(=O)C4(C)CC4)C[C@H]3/C=C\CCCCC[C@H](NC(=O)N(C)c3ccccc3)C(=O)N2C1` [Example 292, (2R,6S,12Z,13aS,14aR,16aS)-5′-methyl-N-[(1-methylcyclopropyl)sulfonyl]-6-{[methyl(phenyl)carbamoyl]amino}-5,16-dioxo-1,1′,2′,6,7,8,9,10,11,13a,14,15,16,16a-tetradecahydrospiro[cyclopropa[e]pyrrolo[1,2-a][1,4]diazacyclopentadecine-2,3′-pyrano[2,3-c]quinoline]-14a(5H)-carboxamide], the IC50 in test [1] (HCOOH salt) came to 0.077 nM. For the same compound, the EC50 in the test on HCV genotype 1b replicon (HCOOH salt) was determined as 27.4 nM.

Turning to `Cc1nc2ccccc2c2c1O[C@]1(CC2)C[C@H]2C(=O)N[C@]3(C(=O)NS(=O)(=O)C4(C)CC4)C[C@H]3/C=C\CCCCC[C@H](NC(=O)N(C(C)C)C(C)C)C(=O)N2C1` [Example 293, (2R,6S,12Z,13aS,14aR,16aS)-6-{[di(propan-2-yl)carbamoyl]amino}-5′-methyl-N-[(1-methylcyclopropyl)sulfonyl]-5,16-dioxo-1,1′,2′,6,7,8,9,10,11,13a,14,15,16,16a-tetradecahydrospiro[cyclopropa[e]pyrrolo[1,2-a][1,4]diazacyclopentadecine-2,3′-pyrano[2,3-c]quinoline]-14a(5H)-carboxamide], the IC50 in test [1] (HCOOH salt) was determined as 0.021 nM. In addition, in the test on HCV genotype 1b replicon (HCOOH salt), the EC50 is 4.87 nM.

For the compound `COc1ccc2nc(C(C)C)c3c(c2c1)CC[C@]1(C[C@H]2C(=O)N[C@]4(C(=O)NS(=O)(=O)C5(C)CC5)C[C@H]4/C=C\CCCCC[C@H](NC(=O)OC(C)(C)C(F)(F)F)C(=O)N2C1)O3` [Example 295, 1,1,1-trifluoro-2-methylpropan-2-yl [(2R,6S,12Z,13aS,14aR,16aS)-9′-methoxy-14a-{[(1-methylcyclopropyl)sulfonyl]carbamoyl}-5,16-dioxo-5′-(propan-2-yl)-1,1′,2′,5,6,7,8,9,10,11,13a,14,14a,15,16,16a-hexadecahydrospiro[cyclopropa[e]pyrrolo[1,2-a][1,4]diazacyclopentadecine-2,3′-pyrano[2,3-c]quinolin]-6-yl]carbamate], the IC50 in test [1] turned out to be 0.024 nM. Further, in the test on HCV genotype 1b replicon, the EC50 was 2.36 nM.

The compound `Cc1nc2ccc(OCC(F)(F)F)cc2c2c1O[C@]1(CC2)C[C@H]2C(=O)N[C@]3(C(=O)NS(=O)(=O)C4(C)CC4)C[C@H]3/C=C\CCCCC[C@H](NC(=O)OC(C)(C)C)C(=O)N2C1` [Example 296, tert-butyl [(2R,6S,12Z,13aS,14aR,16aS)-5′-methyl-14a-{[(1-methylcyclopropyl)sulfonyl]carbamoyl}-5,16-dioxo-9′-(2,2,2-trifluoroethoxy)-1,1′,2′,5,6,7,8,9,10,11,13a,14,14a,15,16,16a-hexadecahydrospiro[cyclopropa[e]pyrrolo[1,2-a][1,4]diazacyclopentadecine-2,3′-pyrano[2,3-c]quinolin]-6-yl]carbamate] displayed an IC50 in test [1] of 0.009 nM. Further, the EC50 with HCV genotype 1b replicon was 2.55 nM.

`Cc1nc2ccc(OC(F)(F)F)cc2c2c1O[C@]1(CC2)C[C@H]2C(=O)N[C@]3(C(=O)NS(=O)(=O)C4(C)CC4)C[C@H]3/C=C\CCCCC[C@H](NC(=O)OCC(C)(C)C)C(=O)N2C1` [Example 297, 2,2-dimethylpropyl [(2R,6S,12Z,13aS,14aR,16aS)-5′-methyl-14a-{[(1-methylcyclopropyl)sulfonyl]carbamoyl}-5,16-dioxo-9′-(trifluoromethoxy)-1,1′,2′,5,6,7,8,9,10,11,13a,14,14a,15,16,16a-hexadecahydrospiro[cyclopropa[e]pyrrolo[1,2-a][1,4]diazacyclopentadecine-2,3′-pyrano[2,3-c]quinolin]-6-yl]carbamate]: the IC50 in test [1] is 0.009 nM. Also, in the test with HCV genotype 1b replicon, the EC50 was 6.06 nM.

`Cc1nc2ccc(OC(F)(F)F)cc2c2c1O[C@]1(CC2)C[C@H]2C(=O)N[C@]3(C(=O)NS(=O)(=O)C4(C)CC4)C[C@H]3/C=C\CCCCC[C@H](NC(=O)OC(C)(C)C(F)(F)F)C(=O)N2C1` [Example 298, 1,1,1-trifluoro-2-methylpropan-2-yl [(2R,6S,12Z,13aS,14aR,16aS)-5′-methyl-14a-{[(1-methylcyclopropyl)sulfonyl]carbamoyl}-5,16-dioxo-9′-(trifluoromethoxy)-1,1′,2′,5,6,7,8,9,10,11,13a,14,14a,15,16,16a-hexadecahydrospiro[cyclopropa[e]pyrrolo[1,2-a][1,4]diazacyclopentadecine-2,3′-pyrano[2,3-c]quinolin]-6-yl]carbamate] came in with an IC50 in test [1] of 0.017 nM. Further, the EC50 with HCV genotype 1b replicon was determined as 6.31 nM.

On to `COc1ccc2nc(C(C)C)c3c(c2c1)C(F)(F)C[C@]1(C[C@H]2C(=O)N[C@]4(C(=O)NS(=O)(=O)C5(C)CC5)C[C@H]4/C=C\CCCCC[C@H](NC(=O)OC(C)(C)C(F)(F)F)C(=O)N2C1)O3` [Example 299, 1,1,1-trifluoro-2-methylpropan-2-yl [(2S,6S,12Z,13aS,14aR,16aS)-1′,1′-difluoro-9′-methoxy-14a-{[(1-methylcyclopropyl)sulfonyl]carbamoyl}-5,16-dioxo-5′-(propan-2-yl)-1,1′,2′,5,6,7,8,9,10,11,13a,14,14a,15,16,16a-hexadecahydrospiro[cyclopropa[e]pyrrolo[1,2-a][1,4]diazacyclopentadecine-2,3′-pyrano[2,3-c]quinolin]-6-yl]carbamate], for which the IC50 in test [1] (K+ salt) worked out at 0.02 nM. Further, the EC50 with HCV genotype 1b replicon (K+ salt) was determined as 6.37 nM.

`Cc1nc2ccccc2c2c1O[C@]1(CC2)C[C@H]2C(=O)N[C@]3(C(=O)NS(=O)(=O)C4(C)CC4)C[C@H]3/C=C\CCCCC[C@H](NC(=O)OC(C)(C)C(F)(F)C(F)(F)F)C(=O)N2C1` [Example 300, 3,3,4,4,4-pentafluoro-2-methylbutan-2-yl [(2R,6S,12Z,13aS,14aR,16aS)-5′-methyl-14a-{[(1-methylcyclopropyl)sulfonyl]carbamoyl}-5,16-dioxo-1,1′,2′,5,6,7,8,9,10,11,13a,14,14a,15,16,16a-hexadecahydrospiro[cyclopropa[e]pyrrolo[1,2-a][1,4]diazacyclopentadecine-2,3′-pyrano[2,3-c]quinolin]-6-yl]carbamate]: the midpoint of inhibition in test [1], the IC50, lay at 0.021 nM. In addition, the EC50 in the test with HCV genotype 1b replicon was found to be 3.12 nM.

Consider `Cc1nc2ccc(OCC(F)(F)F)cc2c2c1O[C@]1(CC2)C[C@H]2C(=O)N[C@]3(C(=O)NS(=O)(=O)C4(C)CC4)C[C@H]3/C=C\CCCCC[C@H](NC(=O)OC(C)(C)C(F)(F)F)C(=O)N2C1` [Example 301, 1,1,1-trifluoro-2-methylpropan-2-yl [(2R,6S,12Z,13aS,14aR,16aS)-5′-methyl-14a-{[(1-methylcyclopropyl)sulfonyl]carbamoyl}-5,16-dioxo-9′-(2,2,2-trifluoroethoxy)-1,1′,2′,5,6,7,8,9,10,11,13a,14,14a,15,16,16a-hexadecahydrospiro[cyclopropa[e]pyrrolo[1,2-a][1,4]diazacyclopentadecine-2,3′-pyrano[2,3-c]quinolin]-6-yl]carbamate], for which, in test [1], 0.013 nM corresponded to half-maximal inhibition (IC50). The EC50 with HCV genotype 1b replicon stood at 3.46 nM.
